Experimental data: patent US6737383B1, “Herbicidal oxadiazolidines” (priority 1999, dated 2004)

Key:
soybean = test: Test B pre/postemergence soybean; type: in vivo, Glycine max
Procedure, shortened: (§1)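 Herbicidal effect was estimated by eye on a ten-point control scale after plants spent twelve to sixteen days in a greenhouse following soil or foliar treatment. Foliar sprays targeted plants at one to four leaves; all doses were formulated in a non-phytotoxic solvent with surfactant.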

giant foxtail = test: Test B pre/postemergence giant foxtail; type: in vivo, Setaria faberii
Procedure, shortened: as §1

sugar beet = test: Test B pre/postemergence sugar beet; type: in vivo, Beta vulgaris
Procedure, shortened: as §1

bamyardgrass = test: Test B flood test barnyardgrass; type: in vivo, Echinochloa crus-galli; conditions: for Plant response rating, Barnyardgrass: scale 0 to 10, 0 is no effect, 10 is complete control; for Barnyardgrass plant response rating: scale of 0 to 10 where 0 is no effect and 10 is complete control
Procedure, shortened: (§2)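 Flood test on plants grown to the 2-leaf stage; treated plants kept in greenhouse twelve to sixteen days, then visually rated against controls on a 0 (no effect) to 10 (complete control) scale.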

smallflower flatsedge = test: Test B flood test smallflower flatsedge; type: in vivo, Cyperus difformis
Procedure, shortened: as §2

wheat = test: Test B pre/postemergence wheat; type: in vivo, Triticum aestivum
Procedure, shortened: as §1

velvetleaf = test: Test B pre/postemergence velvetleaf; type: in vivo, Abutilon theophrasti
Procedure, shortened: as §1

cocklebur = test: Test B pre/postemergence cocklebur; type: in vivo, Xanthium strumarium
Procedure, shortened: as §1

pigweed = test: Test B pre/postemergence pigweed; type: in vivo, Amaranthus retroflexus
Procedure, shortened: as §1

corn = test: Test B pre/postemergence corn; type: in vivo, Zea mays
Procedure, shortened: as §1

duck salad = test: Test B flood test duck salad; type: in vivo, Heteranthera limosa; conditions: for Plant response rating, Ducksalad: scale 0 to 10, 0 is no effect, 10 is complete control; for Ducksalad plant response rating: scale of 0 to 10 where 0 is no effect and 10 is complete control
Procedure, shortened: as §2

rape = test: Test B pre/postemergence rape; type: in vivo, Brassica napus
Procedure, shortened: as §1

morningglory = test: Test B pre/postemergence morningglory; type: in vivo, Ipomoea hederacea
Procedure, shortened: as §1

wild oat = test: Test B pre/postemergence wild oat; type: in vivo, Avena fatua
Procedure, shortened: as §1

surinam grass = test: Test B pre/postemergence surinam grass; type: in vivo, Brachiaria decumbens
Procedure, shortened: as §1

purple nutsedge = test: Test B pre/postemergence purple nutsedge; type: in vivo, Cyperus rotundus
Procedure, shortened: as §1

rice = test: Test B flood test rice; type: in vivo, Oryza sativa
Procedure, shortened: as §2

blackgrass = test: Test B pre/postemergence blackgrass; type: in vivo, Alopecurus myosuroides
Procedure, shortened: as §1

crabgrass = test: Test B pre/postemergence crabgrass; type: in vivo, Digitaria sanguinalis
Procedure, shortened: as §1

[1] = Postemergence, Rate 250 g/ha, scale 0 to 10, 0 is no effect, 10 is complete control
[2] = Postemergence, Rate 500 g/ha, scale of 0 to 10 where 0 is no effect and 10 is complete control
[3] = Preemergence, Rate 62 g/ha, scale 0 to 10 (0 no effect, 10 complete control)
[4] = Preemergence, Rate 125 g/ha, scale of 0 to 10 where 0 is no effect and 10 is complete control
[5] = Preemergence, Rate 250 g/ha, scale 0 to 10, 0 is no effect, 10 is complete control
[6] = Preemergence, Rate 500 g/ha, scale 0 to 10, 0 is no effect, 10 is complete control
[7] = Postemergence, Rate 125 g/ha, scale 0 to 10, 0 is no effect, 10 is complete control
[8] = Rate 62 g/ha, Postemergence, scale of 0 to 10 where 0 is no effect and 10 is complete control
[9] = Postemergence (flood test), Rate 125 g/ha
[10] = Postemergence section (flood test species), Rate 500 g/ha
[11] = Rate 62 g/ha, Postemergence (flood test species)
[12] = flood test species, listed under Postemergence, Rate 250 g/ha
[13] = Postemergence section (flood test species), Rate 500 g/ha, scale of 0 to 10 where 0 is no effect and 10 is complete control
[14] = flood test species, listed under Postemergence, Rate 250 g/ha, scale 0 to 10, 0 is no effect, 10 is complete control
[15] = Preemergence, Rate 250 g/ha, scale of 0 to 10 where 0 is no effect and 10 is complete control

Structure (SMILES): CC(C)N(C(=O)n1oc(=O)n(CCBr)c1=O)c1ccccc1 [Compound 415]
- Plant response rating, Soybean (soybean; [1]): 4
- Soybean plant response rating (soybean; [2]): 7
- Plant response rating, Soybean (soybean; [3]): 0
- Plant response rating, Soybean (soybean; [4]): 0
- Soybean plant response rating (soybean; [5]): 0
- Soybean plant response rating (soybean; [6]): 0
- Plant response rating, Giant foxtail (giant foxtail; [7]): 8
- Plant response rating, Giant foxtail (giant foxtail; [1]): 9
- Giant foxtail plant response rating (giant foxtail; [2]): 9
- Plant response rating, Giant foxtail (giant foxtail; [3]): 9
- Plant response rating, Giant foxtail (giant foxtail; [4]): 10
- Giant foxtail plant response rating (giant foxtail; [5]): 10
- Giant foxtail plant response rating (giant foxtail; [6]): 10
- Giant foxtail plant response rating (giant foxtail; [8]): 5
- Plant response rating, Sugarbeets (sugar beet; [1]): 0
- Sugarbeets plant response rating (sugar beet; [2]): 0
- Plant response rating, Sugarbeets (sugar beet; [3]): 0
- Plant response rating, Sugarbeets (sugar beet; [4]): 0
- Sugarbeets plant response rating (sugar beet; [5]): 6
- Sugarbeets plant response rating (sugar beet; [6]): 8
- Plant response rating, Barnyardgrass (bamyardgrass; [9]): 0
- Barnyardgrass plant response rating (bamyardgrass; [10]): 0
- Barnyardgrass plant response rating (bamyardgrass; [11]): 0
- Plant response rating, Barnyardgrass (bamyardgrass; [12]): 0
- S. Flatsedge plant response rating (smallflower flatsedge; [13]): 3
- Plant response rating, S. Flatsedge (smallflower flatsedge; [14]): 3
- Wheat plant response rating (wheat; [2]): 3
- Plant response rating, Wheat (wheat; [3]): 0
- Plant response rating, Wheat (wheat; [4]): 0
- Wheat plant response rating (wheat; [5]): 2
- Wheat plant response rating (wheat; [6]): 3
- Plant response rating, Velvetleaf (velvetleaf; [1]): 2
- Velvetleaf plant response rating (velvetleaf; [2]): 2
- Plant response rating, Velvetleaf (velvetleaf; [3]): 0
- Plant response rating, Velvetleaf (velvetleaf; [4]): 2
- Velvetleaf plant response rating (velvetleaf; [5]): 6
- Velvetleaf plant response rating (velvetleaf; [6]): 7
- Plant response rating, Cocklebur (cocklebur; [7]): 0
- Plant response rating, Cocklebur (cocklebur; [1]): 1
- Cocklebur plant response rating (cocklebur; [2]): 4
- Plant response rating, Cocklebur (cocklebur; [3]): 0
- Plant response rating, Cocklebur (cocklebur; [4]): 0
- Cocklebur plant response rating (cocklebur; [5]): 0
- Cocklebur plant response rating (cocklebur; [6]): 0
- Cocklebur plant response rating (cocklebur; [8]): 0
- Plant response rating, Redroot pigweed (pigweed; [1]): 0
- Redroot pigweed plant response rating (pigweed; [2]): 3
- Plant response rating, Redroot pigweed (pigweed; [3]): 0
- Plant response rating, Redroot pigweed (pigweed; [4]): 0
- Redroot pigweed plant response rating (pigweed; [5]): 6
- Redroot pigweed plant response rating (pigweed; [6]): 10
- Plant response rating, Corn (corn; [7]): 0
- Plant response rating, Corn (corn; [1]): 1
- Corn plant response rating (corn; [2]): 2
- Plant response rating, Corn (corn; [3]): 0
- Plant response rating, Corn (corn; [4]): 2
- Corn plant response rating (corn; [5]): 3
- Corn plant response rating (corn; [6]): 4
- Corn plant response rating (corn; [8]): 0
- Plant response rating, Ducksalad (duck salad; [9]): 0
- Ducksalad plant response rating (duck salad; [10]): 0
- Ducksalad plant response rating (duck salad; [11]): 0
- Plant response rating, Ducksalad (duck salad; [12]): 0
- Plant response rating, Rape (rape; [1]): 0
- Rape plant response rating (rape; [2]): 1
- Plant response rating, Rape (rape; [3]): 2
- Plant response rating, Rape (rape; [4]): 6
- Rape plant response rating (rape; [5]): 10
- Rape plant response rating (rape; [6]): 10
- Plant response rating, Morningglory (morningglory; [1]): 6
- Morningglory plant response rating (morningglory; [2]): 7
- Plant response rating, Morningglory (morningglory; [3]): 0
- Plant response rating, Morningglory (morningglory; [4]): 0
- Morningglory plant response rating (morningglory; [5]): 0
- Morningglory plant response rating (morningglory; [6]): 0
- Wild oats plant response rating (wild oat; [2]): 3
- Plant response rating, Wild oats (wild oat; [3]): 0
- Plant response rating, Wild oats (wild oat; [4]): 3
- Wild oats plant response rating (wild oat; [5]): 6
- Wild oats plant response rating (wild oat; [6]): 6
- Plant response rating, B. signalgrass (surinam grass; [7]): 0
- Plant response rating, B. signalgrass (surinam grass; [1]): 2
- B. signalgrass plant response rating (surinam grass; [2]): 6
- Plant response rating, B. signalgrass (surinam grass; [3]): 2
- Plant response rating, B. signalgrass (surinam grass; [4]): 3
- B. signalgrass plant response rating (surinam grass; [15]): 6
- B. signalgrass plant response rating (surinam grass; Preemergence, Rate 500 g/ha, scale of 0 to 10 where 0 is no effect and 10 is complete control): 6
- B. signalgrass plant response rating (surinam grass; [8]): 0
- Plant response rating, Nutsedge (purple nutsedge; [1]): 0
- Nutsedge plant response rating (purple nutsedge; [2]): 0
- Plant response rating, Nutsedge (purple nutsedge; [3]): 0
- Plant response rating, Nutsedge (purple nutsedge; [4]): 0
- Nutsedge plant response rating (purple nutsedge; [5]): 0
- Nutsedge plant response rating (purple nutsedge; [6]): 0
- Rice plant response rating (rice; [13]): 0
- Plant response rating, Rice (rice; [14]): 0
- Plant response rating, Blackgrass (blackgrass; [7]): 3
- Plant response rating, Blackgrass (blackgrass; [1]): 8
- Blackgrass plant response rating (blackgrass; [2]): 9
- Plant response rating, Blackgrass (blackgrass; [3]): 5
- Plant response rating, Blackgrass (blackgrass; [4]): 5
- Blackgrass plant response rating (blackgrass; [15]): 9
- Blackgrass plant response rating (blackgrass; [6]): 9
- Blackgrass plant response rating (blackgrass; [8]): 0
- Plant response rating, Crabgrass (crabgrass; [7]): 1
- Plant response rating, Crabgrass (crabgrass; [1]): 8
- Crabgrass plant response rating (crabgrass; [2]): 9
- Plant response rating, Crabgrass (crabgrass; [3]): 8
- Plant response rating, Crabgrass (crabgrass; [4]): 8
- Crabgrass plant response rating (crabgrass; [5]): 9
- Crabgrass plant response rating (crabgrass; [6]): 10
- Crabgrass plant response rating (crabgrass; [8]): 0
